Results from publication PMC12677607, “Identification of a Pair of Linear or Cyclic Naturally Inspired Bifunctional Lipopeptide Antibiotics That Overcome Antimicrobial Resistance” (Advanced Science, 2025).
≈ marks a conversion by molar mass, not a printed value. Bridge positions count the residues as written; N and C are the ends. Square brackets hold non-standard residues; d marks the D form. Peptide text beside a SMILES is read from it. * marks the point of attachment. Octanoyl(3R-OH) = CCCCC[C@@H](O)CC(=O)*; Myristoyl = CCCCCCCCCCCCCC(=O)*; Orn = NCCC[C@H](N)C(=O)O; Dab = NCC[C@H](N)C(=O)O; Dap = NC[C@H](N)C(=O)O

Legend:
Shigella Castellani LXX = experiment: MIC assay (broth micro-dilution); format: cell-based; details: Shigella; Table S11; LB broth, 37 °C, 16 h, n = 2
Protocol: (§1) All MIC assays were performed two independent times (n = 2) in 96‐well plates using a broth micro‐dilution method. The lowest concentration of that inhibited visible microbial growth was recorded as the MIC value.
(§2) For most of bacterial strains, overnight cultures were diluted 5000‐fold in LB broth. For E. faecium and S. aureus, overnight cultures were diluted 1000‐ and 10000‐fold in LB broth, respectively. 100 µL of diluted cells was mixed with 100 µL of LB broth containing each peptide ranging from 64 to 0.125 µg mL^−1 at 2‐fold serial dilutions.

[1] = tested on: Klebsiella pneumoniae ATCC 13883; experiment: microbe, parasite or virus in culture; format: cell-based; details: Klebsiella pneumoniae, ATCC13883, 16 h, read-out: MIC Klebsiella pneumoniae ATCC 13883
Protocol: as §1, §2

[2] = tested on: Pseudomonas aeruginosa ATCC 9027; experiment: microbe, parasite or virus in culture; format: cell-based; details: Pseudomonas aeruginosa, ATCC9027; Table S11; LB broth, 37 °C, 16 h, n = 2
Protocol: as §1, §2

[3] = tested on: Klebsiella pneumoniae NCTC 5056; experiment: microbe, parasite or virus in culture; format: cell-based; details: Klebsiella pneumoniae, NCTC5056, 16 h, read-out: MIC Klebsiella pneumoniae NCTC 5056
Protocol: as §1, §2

[4] = tested on: Vibrio alginolyticus XSBZ14; experiment: microbe, parasite or virus in culture; format: cell-based; details: Vibrio alginolyticus, XSBZ14, 16 h, read-out: MIC Vibrio alginolyticus XSBZ14
Protocol: as §1, §2

[5] = tested on: Acinetobacter baumannii P53; experiment: microbe, parasite or virus in culture; format: cell-based; details: Acinetobacter baumannii, P53; Table S11; LB broth, 37 °C, 16 h, n = 2
Protocol: as §1, §2

[6] = tested on: Salmonella enterica ATCC 14028; experiment: microbe, parasite or virus in culture; format: cell-based; details: Salmonella enterica, ATCC14028, 16 h, read-out: MIC Salmonella enterica ATCC 14028
Protocol: as §1, §2

[7] = tested on: Klebsiella pneumoniae CRKP 5452; experiment: microbe, parasite or virus in culture; format: cell-based; details: for MIC (μg/mL) K. pneumoniae CRKP 5452: CRKP 5452, 16 h
Protocol: as §1, §2

[8] = tested on: Acinetobacter baumannii ATCC 19606; experiment: microbe, parasite or virus in culture; format: cell-based; details: Acinetobacter baumannii, ATCC19606; Table S11; LB broth, 37 °C, 16 h, n = 2
Protocol: as §1, §2

[9] = tested on: Acinetobacter baumannii 1104008; experiment: microbe, parasite or virus in culture; format: cell-based; details: for MIC (μg/mL) A. baumannii 1104008: 1104008, 16 h
Protocol: as §1, §2

[10] = tested on: Pseudomonas aeruginosa PAO1; experiment: microbe, parasite or virus in culture; format: cell-based; details: Pseudomonas aeruginosa, PAO1; Table S11; LB broth, 37 °C, 16 h, n = 2
Protocol: as §1, §2

[11] = tested on: Klebsiella pneumoniae CRKP HS11286; experiment: microbe, parasite or virus in culture; format: cell-based; details: Klebsiella pneumoniae, CRKPHS11286, 16 h, read-out: MIC Klebsiella pneumoniae CRKP HS11286
Protocol: as §1, §2

[12] = tested on: Acinetobacter baumannii ATCC 17978; experiment: microbe, parasite or virus in culture; format: cell-based; details: Acinetobacter baumannii, ATCC17978; Table S11; LB broth, 37 °C, 16 h, n = 2
Protocol: as §1, §2

[13] = tested on: Salmonella typhimurium LXX; experiment: microbe, parasite or virus in culture; format: cell-based; details: Salmonella enterica, TYPHIMURIUM, 16 h, read-out: MIC Salmonella typhimurium LXX
Protocol: as §1, §2

[14] = tested on: Candida albicans ATCC 10231; experiment: MIC assay (YPD broth); format: cell-based; details: ATCC 10231, 16 h
Protocol: as §1
For fungal strains, overnight cultures were diluted 2000‐fold in YPD broth. 100 µL of diluted cells was mixed with 100 µL of YPD broth containing each peptide ranging from […] 64 to 0.125 µg mL^−1 at 2‐fold serial dilutions.

[15] = tested on: Staphylococcus aureus USA300; experiment: microbe, parasite or virus in culture; format: cell-based; details: USA300, 16 h
Protocol: as §1, §2

[16] = tested on: Streptococcus pyogenes ATCC 19615; experiment: microbe, parasite or virus in culture; format: cell-based; details: ATCC 19615, 16 h
Protocol: as §1, §2

HeLa cells = experiment: Cytotoxicity assay (CCK-8); format: cell-based, human; details: 48 h
Protocol: The cytotoxicity of each synAQU peptide was assessed using a cell counting kit‐8 (CCK‐8) assay. HeLa cells were first seeded in a 96‐well flat‐bottom microtiter plate with a density of ∼5000 cells per well and incubated in the DMEM medium supplemented with 10% FBS at 37 °C with 5% CO2 for 24 h. […] All cytotoxicity experiments were done in triplicate (n = 3) and repeated two independent times (n = 2).

Row | Structure (SMILES) | MIC (μg/mL) C. albicans ATCC 10231 [14] | MIC (μg/mL) K. pneumoniae CRKP 5452 [7] | MIC (μg/mL) A. baumannii 1104008 [9] | MIC (μg/mL) S. aureus USA300 [15] | MIC (μg/mL) S. pyogenes ATCC 19615 [16] | MIC (Shigella Castellani LXX) | MIC [1] | MIC [2] | MIC [3] | MIC [4] | MIC [5] | MIC [6] | MIC ([7]; Klebsiella pneumoniae, CRKP5452, Table S11, LB broth, 37 °C, 16 h, n = 2) | MIC [8] | MIC ([9]; Acinetobacter baumannii, 1104008, Table S11, LB broth, 37 °C, 16 h, n = 2) | MIC [10] | MIC [11] | MIC [12] | MIC [13] | MIC (μg/mL) Hela (HeLa cells)
1 | C[C@@H](O)[C@H]1C(=O)N2C(C(=O)O)=C(S[C@@H]3CN[C@H](C(=O)N(C)C)C3)[C@H](C)[C@H]12 [Meropenem, reference compound] | – | – | – | – | – | 0.125 µg/mL (≈ 0.326 µM) | < 0.125 µg/mL | 0.25 µg/mL (≈ 0.652 µM) | 0.125 µg/mL (≈ 0.326 µM) | < 0.125 µg/mL | 32 µg/mL (≈ 83.4 µM) | 0.125 µg/mL (≈ 0.326 µM) | 16 µg/mL (≈ 41.7 µM) | 0.5 µg/mL (≈ 1.3 µM) | 16 µg/mL (≈ 41.7 µM) | 16 µg/mL (≈ 41.7 µM) | 8 µg/mL (≈ 20.9 µM) | 0.25 µg/mL (≈ 0.652 µM) | 0.125 µg/mL (≈ 0.326 µM) | –
2 | CCCCCCCCCCCCCC(=O)N[C@@H](Cc1ccccc1)C(=O)N[C@@H](CCCN)C(=O)N[C@@H](CCCN)C(=O)N[C@@H](C(=O)N[C@H](C(=O)N[C@@H](CC(C)C)C(=O)N[C@H](Cc1ccc(O)cc1)C(=O)N[C@@H](CCN)C(=O)NCC(=O)O)[C@@H](C)CC)C(C)C [synAQU2-L] (Myristoyl-F[Orn][Orn][dV]IL[dY][Dab]G-OH) | > 64 µg/mL | > 64 µg/mL | > 64 µg/mL | > 64 µg/mL | > 64 µg/mL | – | – | – | – | – | – | – | – | – | – | – | – | – | – | > 64 µg/mL
3 | CCCCC[C@@H](O)CC(=O)N[C@H]1CNC(=O)[C@H](CC(=O)O)NC(=O)[C@H](C(C)C)NC(=O)[C@@H](CC(C)C)NC(=O)[C@H](CN)NC(=O)[C@@H](Cc2ccccc2)NC(=O)[C@H]([C@@H](C)O)NC(=O)[C@H](CCN)NC(=O)[C@H](Cc2ccccc2)NC1=O [synAQU3-C1] ({Octanoyl(3R-OH)}-[Dap]F[Dab]T[dF][Dap][dL]VD; lactam 1-C (inferred)) | > 64 µg/mL | > 64 µg/mL | > 64 µg/mL | > 64 µg/mL | > 64 µg/mL | – | – | – | – | – | – | – | – | – | – | – | – | – | – | > 64 µg/mL
4 | CCCCC[C@@H](O)CC(=O)N[C@@H](CN)C(=O)N[C@@H](Cc1ccccc1)C(=O)N[C@@H](CCN)C(=O)N[C@@H]1C(=O)N[C@H](Cc2ccccc2)C(=O)N[C@@H](CN)C(=O)N[C@H](CC(C)C)C(=O)N[C@@H](C(C)C)C(=O)N[C@@H](CC(=O)O)C(=O)O[C@@H]1C [synAQU3-C4] ({Octanoyl(3R-OH)}-[Dap]F[Dab]T[dF][Dap][dL]VD; ester 4-C (inferred)) | > 64 µg/mL | > 64 µg/mL | > 64 µg/mL | > 64 µg/mL | > 64 µg/mL | – | – | – | – | – | – | – | – | – | – | – | – | – | – | > 64 µg/mL
5 | CCCCC[C@@H](O)CC(=O)N[C@@H](CN)C(=O)N[C@@H](Cc1ccccc1)C(=O)N[C@@H](CCN)C(=O)N[C@H](C(=O)N[C@H](Cc1ccccc1)C(=O)N[C@@H](CN)C(=O)N[C@H](CC(C)C)C(=O)N[C@H](C(=O)N[C@@H](CC(=O)O)C(=O)O)C(C)C)[C@@H](C)O [synAQU3-L] ({Octanoyl(3R-OH)}-[Dap]F[Dab]T[dF][Dap][dL]VD-OH) | > 64 µg/mL | > 64 µg/mL | > 64 µg/mL | > 64 µg/mL | > 64 µg/mL | – | – | – | – | – | – | – | – | – | – | – | – | – | – | > 64 µg/mL

More lines, main results first:

Row | MIC (μg/mL) C. albicans ATCC 10231 [14] | MIC (μg/mL) K. pneumoniae CRKP 5452 [7] | MIC (μg/mL) A. baumannii 1104008 [9] | MIC (μg/mL) S. aureus USA300 [15] | MIC (μg/mL) S. pyogenes ATCC 19615 [16] | Structure (SMILES) | MIC (Shigella Castellani LXX) | MIC [1] | MIC [2] | MIC [3] | MIC [4] | MIC [5] | MIC [6] | MIC ([7]; Klebsiella pneumoniae, CRKP5452, Table S11, LB broth, 37 °C, 16 h, n = 2) | MIC [8] | MIC ([9]; Acinetobacter baumannii, 1104008, Table S11, LB broth, 37 °C, 16 h, n = 2) | MIC [10] | MIC [11] | MIC [12] | MIC [13] | MIC (μg/mL) Hela (HeLa cells)
6 | > 64 µg/mL | > 64 µg/mL | > 64 µg/mL | > 64 µg/mL | > 64 µg/mL | CCCCCCCCCCCCCC(=O)N[C@@H](Cc1ccccc1)C(=O)N[C@H]1CCCNC(=O)CNC(=O)[C@H](CCN)NC(=O)[C@@H](Cc2ccc(O)cc2)NC(=O)[C@H](CC(C)C)NC(=O)[C@H]([C@@H](C)CC)NC(=O)[C@@H](C(C)C)NC(=O)[C@H](CCCN)NC1=O [synAQU2-C2] (Myristoyl-F[Orn][Orn][dV]IL[dY][Dab]G; lactam 2-C (inferred)) | – | – | – | – | – | – | – | – | – | – | – | – | – | – | > 64 µg/mL
7 | > 64 µg/mL | > 64 µg/mL | > 64 µg/mL | > 64 µg/mL | > 64 µg/mL | CCCCC[C@@H](O)CC(=O)N[C@@H](CN)C(=O)N[C@@H](Cc1ccccc1)C(=O)N[C@H]1CCNC(=O)[C@H](CC(=O)O)NC(=O)[C@H](C(C)C)NC(=O)[C@@H](CC(C)C)NC(=O)[C@H](CN)NC(=O)[C@@H](Cc2ccccc2)NC(=O)[C@H]([C@@H](C)O)NC1=O [synAQU3-C3] ({Octanoyl(3R-OH)}-[Dap]F[Dab]T[dF][Dap][dL]VD; lactam 3-C (inferred)) | – | – | – | – | – | – | – | – | – | – | – | – | – | – | > 64 µg/mL
